Data: patent US20210363152A1, “AMINOAZINE AMIDES” (Hoffmann-La Roche Inc., priority 2018, published 2021)

molecular target: T1, Autotaxin enzyme (ATX) (Homo sapiens, UniProt Q13822); assay: In vitro ATX assay (enzymatic ATX inhibition, LPC 14:0 substrate, choline oxidase/HRP absorbance readout); format: biochemical; details: 0.3 mM LPC 14:0, 37° C., 4 hours, absorbance 555 nm
T1 construct: purchased Echelon Biosciences, Inc. E-4000
Procedure: • Assay buffer: 100 mM Tris-HCl, pH 9.0, 500 mM NaCl, 5 mM MgCl2, 30 μM CoCl2, 0.05% Triton X-100 • Assay buffer II: 4.5 mM 4-AAP, 2.7 mM TOOS, 21.2 U/mL HRP, 3 U/mL CO, In 50 mM Tris-HCl pH 8.0, 4.5 mM MgCl2
A compound preparation plate (Nunc 249944) was prepared by adding 30 mM stock solution (in DMSO) of test compound and performing a serial full-log dilution down to 30 nM. Two μL/well were transferred from the first compound prep plate to a compound dilution plate (Corning, 3641) and 198 μL assay buffer I was added for a […].
A 10 ng/mL solution of ATX was prepared by diluting in assay buffer I, and 80 μL/well were added to the assay plate (Corning, 3641); negative control wells contained 80 μL/well assay buffer I only (no ATX). Ten μL/well from the compound dilution plate (containing serially diluted test compound or DMSO) were added to the assay plate, which was then incubated at 37° C. for 15 minutes. A solution of LPC 14:0 was prepared in assay buffer I at 3 mM and 10 μl/well were added to the assay plate, for a final concentration of 0.3 mM LPC, and returned to 37° C. incubator for 4 hours. After 4 hour incubation, 100 μL/well of assay buffer II was added to all wells of the assay plate. The plate was incubated at RT for 15 minutes, prior to reading on FlexStation in absorbance mode, 555 nm. Results in the enzymatic ATX inhibition assay are provided for compounds of formula (I). An IC50 value of “A” is less than 100 nM, “B” is equal to or greater than 100 nM but less than 1 μM, “C” is equal to or greater than 1 μM.

| SMILES | IC50 [nM] |
| --- | --- |
| CC(C)c1cc(CNc2ncc(C(=O)N3CCC3C)cn2)cc(OC(F)(F)F)c1 (single isomer, unassigned) [Example 69, (2-((3-Isopropyl-5-(trifluoromethoxy)benzyl)amino)pyrimidin-5-yl)(2-methylazetidin-1-yl)methanone] | < 100 |
| CC(C)c1cc(CNc2ncc(C(=O)N3CCC3C)cn2)cc(OC(F)(F)F)c1 (single isomer, unassigned) [Example 70, (2-((3-Isopropyl-5-(trifluoromethoxy)benzyl)amino)pyrimidin-5-yl)(2-methylazetidin-1-yl)methanone] | < 100 |
| O=C(c1cnc(NCc2cc(OC(F)(F)F)cc(C3CC3)c2)nc1)N1CCC12CCOC2 (single isomer, unassigned) [Example 116, (2-((3-Cyclopropyl-5-(trifluoromethoxy)-benzyl)amino)pyrimidin-5-yl)(6-oxa-1-azaspiro[3.4]octan-1-yl) methanone] | < 100 |
| O=C(c1cnc(NCc2cc(OC(F)(F)F)cc(C3CC3)c2)nc1)N1CCC12CCOC2 (single isomer, unassigned) [Example 117, (2-((3-Cyclopropyl-5-(trifluoromethoxy)-benzyl)amino)pyrimidin-5-yl)(6-oxa-1-azaspiro[3.4]octan-1-yl) methanone] | < 100 |
| CC1CC(C)N1C(=O)c1cnc(NCc2cc(OC(F)(F)F)cc(C3CC3)c2)nc1 (single isomer, unassigned) [Example 118, (2-((3-Cyclopropyl-5-(trifluoromethoxy)-benzyl)amino)pyrimidin-5-yl)(2,4-dimethylazetidin-1-yl)methanone] | < 100 |
| CC1CC(C)N1C(=O)c1cnc(NCc2cc(OC(F)(F)F)cc(C3CC3)c2)nc1 (single isomer, unassigned) [Example 119, (2-((3-Cyclopropyl-5-(trifluoromethoxy)-benzyl)amino)pyrimidin-5-yl)(2,4-dimethylazetidin-1-yl)methanone] | ≥ 1000 |
| CC1CC(C)N1C(=O)c1cnc(NCc2cc(OC(F)(F)F)cc(C3CC3)c2)nc1 (single isomer, unassigned) [Example 120, (2-((3-Cyclopropyl-5-(trifluoromethoxy)-benzyl)amino)pyrimidin-5-yl)(2,4-dimethylazetidin-1-yl)methanone] | < 100 |
| O=C(c1cnc(NCc2cc(OC(F)(F)F)cc(C3CC3)c2)nc1)N1CCC12CCCOC2 (single isomer, unassigned) [Example 121, (2-((3-Cyclopropyl-5-(trifluoromethoxy)benzyl)amino)-pyrimidin-5-yl)(6-oxa-1-azaspiro[3.5]nonan-1-yl)methanone] | < 100 |
| O=C(c1cnc(NCc2cc(OC(F)(F)F)cc(C3CC3)c2)nc1)N1CCC12CCCOC2 (single isomer, unassigned) [Example 122, (2-((3-Cyclopropyl-5-(trifluoromethoxy)benzyl)amino)-pyrimidin-5-yl)(6-oxa-1-azaspiro[3.5]nonan-1-yl)methanone] | < 100 |
| CC(C)c1cc(CNc2ncc(C(=O)N3CCC34COC4)cn2)cc(OC(F)(F)F)c1 [Example 1, (2-((3-Isopropyl-5-(trifluoromethoxy)benzyl)amino)pyrimidin-5-yl) (6-oxa-1-azaspiro[3.3]heptan-1-yl)methanone] | < 100 |
| O=C(c1cnc(NCc2cccc(OC(F)(F)F)c2)nc1)N1CCC12COC2 [Example 2] | 100 to 1000 |
| O=C(c1cnc(NCc2cccc(OC(F)(F)F)c2)nc1)N1CC2(COC2)C1 [Example 3] | ≥ 1000 |
| CC(C)(C)c1cc(CNc2ncc(C(=O)N3CCC34COC4)cn2)cc(OC(F)(F)F)c1 [Example 4] | < 100 |
| CC1CCN1C(=O)c1cnc(NCc2cc(OC(F)(F)F)cc(C(C)(C)C)c2)nc1 (centres unmarked) [Example 5] | 100 to 1000 |
| CC(C)c1cc(CNc2ncc(C(=O)N3CCC3C)cn2)cc(OC(F)(F)F)c1 (centres unmarked) [Example 6] | < 100 |
| O=C(c1cnc(NC2Cc3ccccc3C2)nc1)N1CCC12COC2 [Example 7] | 100 to 1000 |
| O=C(c1cnc(NC2Cc3ccccc3C2)nc1)N1CCC1 [Example 8] | 100 to 1000 |
| CC1CCN1C(=O)c1cnc(NCc2cc(C(F)(F)F)cc(C(F)(F)F)c2)nc1 (centres unmarked) [Example 9] | 100 to 1000 |
| CC1CCN1C(=O)c1cnc(NCc2cc(Cl)cc(Cl)c2)nc1 (centres unmarked) [Example 10] | 100 to 1000 |
| COc1cc(CNc2ncc(C(=O)N3CCC3C)cn2)cc(OC)c1 (centres unmarked) [Example 11] | ≥ 1000 |

| SMILES | IC50 [nM] |
| --- | --- |
| Cc1cc(CNc2ncc(C(=O)N3CCC3C)cn2)cc(OC(F)(F)F)c1 (centres unmarked) [Example 12] | 100 to 1000 |
| CC(Nc1ncc(C(=O)N2CCC23COC3)cn1)c1cccc(OC(F)(F)F)c1 (centres unmarked) [Example 13] | ≥ 1000 |
| N#Cc1cccc(CNc2ncc(C(=O)N3CCC34COC4)cn2)c1 [Example 14] | ≥ 1000 |
| O=C(c1cnc(NCc2cccc(Cl)c2)nc1)N1CCC12COC2 [Example 15] | ≥ 1000 |
| CS(=O)(=O)c1cccc(CNc2ncc(C(=O)N3CCC34COC4)cn2)c1 [Example 16] | ≥ 1000 |
| O=C(c1cnc(NCc2cccc(OC(F)F)c2)nc1)N1CCC12COC2 [Example 17] | ≥ 1000 |
| O=C(c1cnc(NCc2cccc(C(F)F)c2)nc1)N1CCC12COC2 [Example 18] | ≥ 1000 |
| CC(C)c1cc(CNc2ncc(C(=O)N3CCC34COC4)cn2)cc(S(F)(F)(F)(F)F)c1 [Example 19] | 100 to 1000 |
| O=C(c1cnc(NCc2cccc(C(F)(F)F)c2)nc1)N1CCC12COC2 [Example 20] | ≥ 1000 |
| CC(C)c1cc(CNc2ncc(C(=O)N3CCCC3)cn2)cc(OC(F)(F)F)c1 [Example 21] | < 100 |
| CC(C)c1cc(CNc2ncc(C(=O)N3CCCCC3)cn2)cc(OC(F)(F)F)c1 [Example 22] | 100 to 1000 |
| O=C(c1cnc(NCc2cc(OC(F)(F)F)cc(C3CCC3)c2)nc1)N1CCC12COC2 [Example 23] | < 100 |
| O=C(c1cnc(NCc2cccc(S(F)(F)(F)(F)F)c2)nc1)N1CCC12COC2 [Example 24] | 100 to 1000 |
| O=C(c1cnc(NCc2cc(Br)cc(OC(F)(F)F)c2)nc1)N1CCC12COC2 [Example 25] | < 100 |
| O=C(c1cnc(NCc2cc(F)cc(OC(F)(F)F)c2)nc1)N1CCC12COC2 [Example 26] | 100 to 1000 |
| O=C(c1cnc(NCc2cc(OCC3CC3)cc(OC(F)(F)F)c2)nc1)N1CCC12COC2 [Example 27] | < 100 |
| CC(C)Oc1cc(CNc2ncc(C(=O)N3CCC34COC4)cn2)cc(OC(F)(F)F)c1 [Example 28] | < 100 |
| COc1cc(CNc2ncc(C(=O)N3CCC34COC4)cn2)cc(OC(F)(F)F)c1 [Example 30] | 100 to 1000 |
| CCOc1cc(CNc2ncc(C(=O)N3CCC34COC4)cn2)cc(OC(F)(F)F)c1 [Example 31] | < 100 |
| COc1ccc2c(c1)CC(Nc1ncc(C(=O)N3CCC34COC4)cn1)C2 (centres unmarked) [Example 32] | 100 to 1000 |

| SMILES | IC50 [nM] |
| --- | --- |
| O=C(c1cnc(NC2Cc3ccc(Cl)cc3C2)nc1)N1CCC12COC2 (centres unmarked) [Example 33] | < 100 |
| N#Cc1ccc2c(c1)CC(Nc1ncc(C(=O)N3CCC34COC4)cn1)C2 (centres unmarked) [Example 34] | 100 to 1000 |
| O=C(c1cnc(NCc2cc(OCC(F)(F)F)cc(OC(F)(F)F)c2)nc1)N1CCC12COC2 [Example 35] | < 100 |
| O=C(c1cnc(NCc2cc(C3CC3)cc(C(F)(F)F)c2)nc1)N1CCC12COC2 [Example 36] | < 100 |
| O=C(c1cnc(NCc2cc(C3CC3)cc(C3CC3)c2)nc1)N1CCC12COC2 [Example 37] | < 100 |
| CC(C)Oc1cc(CNc2ncc(C(=O)N3CCC34COC4)cn2)cc(C2CC2)c1 [Example 38] | < 100 |
| CCCc1cc(CNc2ncc(C(=O)N3CCC34COC4)cn2)cc(OC(C)C)c1 [Example 39] | < 100 |
| CN1CCC2(CC1)CCN2C(=O)c1cnc(NC2Cc3ccc(Cl)cc3C2)nc1 (centres unmarked) [Example 40] | < 100 |
| CC1(C)CCN1C(=O)c1cnc(NC2Cc3ccc(Cl)cc3C2)nc1 (centres unmarked) [Example 41] | < 100 |
| O=C(c1cnc(NC2Cc3ccc(F)cc3C2)nc1)N1CCC12COC2 (centres unmarked) [Example 42] | < 100 |
| O=C(c1cnc(NC2Cc3ccc(Br)cc3C2)nc1)N1CCC12COC2 (centres unmarked) [Example 43] | < 100 |
| CC1CCN1C(=O)c1cnc(NC2Cc3ccc(Cl)cc3C2)nc1 (centres unmarked) [Example 44] | < 100 |
| O=C(c1cnc(NC2Cc3ccc(Cl)cc3C2)nc1)N1CCC1C(F)F (centres unmarked) [Example 45] | < 100 |
| O=C(c1cnc(NC2Cc3ccc(Cl)cc3C2)nc1)N1CCCC12COC2 (centres unmarked) [Example 46] | < 100 |
| O=C(c1cnc(NC2Cc3ccc(Cl)cc3C2)nc1)N1CCC12CCOCC2 (centres unmarked) [Example 47] | < 100 |
| O=C(c1cnc(NC2Cc3ccc(Cl)cc3C2)nc1)N1CCC12CCCOC2 (centres unmarked) [Example 48] | < 100 |
| O=C(c1cnc(NC2Cc3ccc(Cl)cc3C2)nc1)N1CCC12CS(=O)(=O)C2 (centres unmarked) [Example 49] | < 100 |
| O=C(c1cnc(NCc2cc(Cl)cc(Cl)c2)nc1)N1CCC12COC2 [Example 50] | 100 to 1000 |
| O=C(c1cnc(NCc2ccc(Cl)c(Cl)c2)nc1)N1CCC12COC2 [Example 51] | ≥ 1000 |
